Data on seven molecules can be found in US20230074209A1, “METHOD AND DEVICE FOR PROVIDING DRUG RECOMMENDATION” (Cancerfree biotech Ltd., priority 2021, published 2023).

Data set [1] relates to patient's CTC-derived organoid cultures. The data set can be described thus: Drug sensitivity assay of CTC-derived organoid cultures (CellTiter Glo ATP, relative cell viability). It counts as cell-based, human. Conditions: for relative cell viability: CTC-derived organoid cultures of patient, one week co-culture; for CTC sensitivity profiling: CTCs of patient. The text has this: In some embodiments, first, a liquid biopsy of the patient is obtained, and CTCs are then isolated from the liquid biopsy, and the CTCs are then expanded to obtain the CTC-derived organoid cultures. The liquid biopsy is, for example, a blood sample, such as a peripheral venous blood sample. In one example, the CTCs were isolated from the liquid biopsy, and the biomimetic cell culture system was then used to expand the CTCs in vitro to form the CTC-derived organoid cultures. In one example, Ficoll-Paque centrifugation was used to isolate peripheral blood mononuclear cells (PBMCs) containing the CTCs from the blood sample. The cells were then seeded onto a substrate of binary colloidal crystal (BCC) containing silica and polymethyl methacrylate (PMMA), and cultured in the biomimetic cell culture system for three weeks, with replacement of culture medium every four days. The expansion of the organoid cultures could be monitored by optical microscopy, and the presence of the CTCs could be confirmed by EpCAM and CD45 immunofluorescence staining. The CTC-derived organoid cultures were positive for EpCAM and negative for CD45 in the immunofluorescence staining
In one example, the CTC-derived organoid cultures were resuspended in a culture medium, and then divided into aliquots and loaded to 96-well plates for drug sensitivity assays. The aliquots were divided into a control group (not reacted with a drug) and drug test groups (respectively reacted with different drugs). For advanced pancreatic ductal adenocarcinoma, gemcitabine, 5-fluorouracil (5-FU), erlotinib, irinotecan, olaparib, oxaliplatin, paclitaxel, palbociclib and trametinib were selected as candidate drugs and tested against the CTC-derived organoid cultures at concentrations according to the clinical pharmacokinetics of each of the drugs, in order to mimic the effect of a clinical dose in patients. Different drug treatments were respectively added to each of the wells in the 96-well plates, after which cultures were continued to co-culture for one week. At the end of the assay period, viable cell counts were measured using cytosolic adenosine triphosphate (ATP) abundance (CellTiter Glo, Promega, Madison Wis., USA) via a luminometer (Promega). The relative cell viabilities of the CTC-derived organoid cultures respectively corresponding to the 9 candidate drugs were calculated by the formula: relative cell viability=(viable cell counts of the drug test group/viable cell counts of the control group)×100%. Lower cell viability following application of test treatments was indicative of greater drug sensitivity and better anti-tumor effect. However, the present disclosure is not limited to the above example, and other test methods or calculation methods can be used to obtain the relative cell viabilities.

The test system of the next data set is pancreatic cancer. The data set can be described thus: Clinical course of individual pancreatic cancer patients under treatment. The following applies: patient. It is filed as in vivo, human.
[2] abbreviates: locally advanced pancreatic cancer.
Where [3] appears, read: August 2019, 12 cycles of chemotherapy plus radiotherapy 44 Gy/20 Fx.

Experimental for pancreatic cancer: In one example, clinical response to treatment in patients was evaluated using Response Evaluation Criteria in Solid Tumors (RECIST) version 1.1 criteria.

`C#Cc1cccc(Nc2ncnc3cc(OCCOC)c(OCCOC)cc23)c1` [erlotinib]: in data set [1] (locally advanced pancreatic cancer, clinical-PK concentration), the relative cell viability stood at 27.8%.

As to `O=c1[nH]cc(F)c(=O)[nH]1` [5-FU, 5-fluorouracil], the CTC sensitivity profiling result in data set [1] (setting [2]) is listed as “resistance”.

Take `O=C(c1cc(Cc2n[nH]c(=O)c3ccccc23)ccc1F)N1CCN(C(=O)C2CC2)CC1` [olaparib]: the relative cell viability in data set [1] (metastatic pancreatic cancer) worked out at 16.7%.

For the molecule `CCc1c2c(nc3ccc(OC(=O)N4CCC(N5CCCCC5)CC4)cc13)-c1cc3c(c(=O)n1C2)COC(=O)[C@]3(O)CC` [irinotecan], in data set [1] (setting [2]), the CTC sensitivity profiling entry is reported as “resistance”.

Turning to `O=C1[O][Pt]2([NH][C@@H]3CCCC[C@H]3[NH]2)[O]C1=O` [oxaliplatin], in data set [1] (setting [2]), the CTC sensitivity profiling entry is listed as “resistance”.

Regarding FOLFIRINOX, in the data set on pancreatic cancer (setting [3]), the “abdominal CT scan response, liver metastases” value is recorded as “partial response (PR)” and the “abdominal CT scan response, pancreatic mass” value is recorded as “stable disease (SD)”. Moreover, the “follow-up CT scan response, pancreatic tumor” value with pancreatic cancer (November 2019, with liver, bone and peritoneal seeding) is recorded as “progressive disease (PD)”.

In the case of `CC(=O)O[C@H]1C(=O)[C@@]2(C)[C@H]([C@H](OC(=O)c3ccccc3)[C@]3(O)C[C@H](OC(=O)[C@H](O)[C@@H](NC(=O)c4ccccc4)c4ccccc4)C(C)=C1C3(C)C)[C@]1(OC(C)=O)CO[C@@H]1C[C@@H]2O` [paclitaxel], in data set [1] (setting [2]), the CTC sensitivity profiling result is “resistance”.
